# Laboratory results: ChEMBL document CHEMBL2094269, “WEHI/Eskitis Trypanosoma b. brucei screening data”
# Several values for one entry are separate records, joined by “and”; a condition that tells them apart may be missing. Equal entries are not always repeated.
# How the values were obtained:
# [1] = DNDI: Cytotoxicity against human MRC-5 lung fibroblast cells.; settings: IC50
# [2] = tested on: Trypanosoma brucei brucei; experiment: microbe, parasite or virus in culture; assay type: functional, organism-based, STIB 795
# Description: DNDI: Inhibition of Human African Trypanosomiasis (HAT), STIB 795, in vitro
Compound,IC50 [1],"IC50 ([2]; Trypanosoma brucei, STIB 795)",IC50 [2]
CC[n+]1c(/C=C/c2c[nH]c3ccccc23)ccc2cc(C)ccc21,3.71 µM,0.294 µM,–
N=C(NOC(=O)N1CCOCC1)c1ccccc1,> 4.17 µM,1.19 µM,–
Nc1ccc2ccc3cccnc3c2n1,> 4.17 µM,2.4 µM,–
CC[n+]1ccccc1/C=C1\C=Cc2cc(C)ccc2N1C,> 20.8 µM,0.911 µM,–
Clc1ccc(OCCCCCN2CCNCC2)c(Cl)c1,> 41.7 µM,3.57 µM,–
NCC12CC3CC(C1)CC(c1ccc(Cl)c(Cl)c1)(C3)C2,> 41.7 µM,2.54 µM,–
CCc1cc2c(cc1C(C)N)C(C)(C)CCC2(C)C (stereo unspecified),> 20.8 µM,5 µM,–
CC(C)C1CC(CCNCc2ccc(N(C)C)cc2)(c2ccccc2)CCO1 (stereo unspecified),> 41.7 µM,5.22 µM,–
O=C1CN(Cc2ccccc2)c2ccccc2N1,8.3 µM,1.01 µM,–
CN(C)c1ccc(/C=C/c2cc[n+](C)cc2)cc1,> 20.8 µM,0.458 µM,–
N/C(=N\OC(=O)c1ccccc1Br)c1ccccc1,> 20.8 µM,2.66 µM,–
C/N=c1\nnc(Nc2ccccc2O)c(N)o1,4.68 µM,0.287 µM,–
CC(=O)NC1=C(N2CCN(C(=O)c3ccco3)CC2)C(=O)c2ccccc2C1=O,> 41.7 µM,5.41 µM,5.36 µM
CC(C)COc1ccc2c(c1)c1c3n2CNCC3CCC1 (stereo unspecified),> 20.8 µM,2.88 µM,–
COc1ccc2c(c1)C(=NN=C(N)N)c1cc(OC)ccc1-2,> 41.7 µM,4.23 µM,–
CC(C)NCC(O)CC(O)(c1ccccc1)c1ccc(C(C)(C)C)cc1 (stereo unspecified),> 20.8 µM,5.12 µM,–
N=c1n(CCc2ccccc2)c2ccccc2n1Cc1ccccc1F,> 20.8 µM,5.49 µM,–
CC1(C)OC(C)(C)/C(=C/c2ccc3cccnc3c2)C1=O,> 20.8 µM,5.21 µM,–
Cc1ccc(C(OCC(C)(C)C[N+](C)(C)C)c2ccccc2)cc1 (stereo unspecified),> 41.7 µM,6.71 µM,–
Cn1c(=N)n(CC(=O)c2cc(C(C)(C)C)c(O)c(C(C)(C)C)c2)c2ccccc21,> 20.8 µM,4.57 µM,2.62 µM
CN(C)CCn1c2ccccc2c2cnc(N)c(C#N)c21,> 4.17 µM,3.62 µM,–
CCOc1cc2c(cc1OCC)C(/C(Cl)=C/c1ccccc1)NCC2 (stereo unspecified),> 41.7 µM,5 µM,–
CCC(C)NC(=O)c1nc(-c2ccccc2)cnc1N (stereo unspecified),> 41.7 µM,0.426 µM,–

Compound,IC50 [1],"IC50 ([2]; Trypanosoma brucei, STIB 795)",IC50 [2]
CCc1c(C)nc(-n2nc(C)cc2NC(=O)c2ccccc2Cl)[nH]c1=O,> 20.8 µM,2.88 µM,–
CCCC[n+]1c(/C=C2/C=CN(CC)c3ccc(C)cc32)ccc2ccccc21,> 4.17 µM,0.362 µM,–
CN(C)CCOc1ccccc1C1NCCc2c1[nH]c1ccccc21 (stereo unspecified),> 20.8 µM,1.28 µM,–
Cc1ccc(C23CC4CC(CC(NC(=O)NCCN(C)C)(C4)C2)C3)cc1,> 20.8 µM,4.01 µM,–
CC(=O)Cc1ccc2cccc(O)c2n1,> 4.17 µM,4.56 µM,–
Clc1ccnc2c1ccc1nn[nH]c12,> 41.7 µM,4.39 µM,–
Cc1ccc(/N=N/c2ccc(O)c3ncccc23)cc1C,> 20.8 µM,4.92 µM,–
O=C1CC(n2nnn(-c3ccc(OC(F)(F)F)cc3)c2=S)C2COC1O2 (stereo unspecified),> 41.7 µM,4.99 µM,–
O=C(CSc1cccc2cccnc12)c1ccc(Cl)cc1Cl,> 41.7 µM,1.4 µM,–
CC1(C)CC(=S)C=C(N2CCCCC2)C1,> 41.7 µM,1.95 µM,–
CC(C)OCc1cc(CN2CCOCC2)c(O)c2ncccc12,0.91 µM,0.498 µM,–
O=C(c1ccc(F)cc1)C(CSc1ccc(F)cc1)n1cncn1 (stereo unspecified),> 41.7 µM,4.92 µM,–
O=C1c2ccccc2C(=O)c2c1ccc1c(=O)o[nH]c21,> 41.7 µM,4.64 µM,–
CCOc1ccc(/C=N/NC(=N)N)cc1,> 41.7 µM,5.66 µM,–
Cc1cc(OCC(O)CNC(C)c2ccccc2)cc(C)c1Cl (stereo unspecified),> 41.7 µM,4.73 µM,–
COc1ccccc1-c1nc(SCC(=O)c2ccc(O)c(O)c2)n[nH]1,> 41.7 µM,2.69 µM,–
CN1C/C(=C/c2ccc(C#N)cc2)C(=O)/C(=C/c2ccc(C#N)cc2)C1,> 20.8 µM,0.366 µM,–
O=c1cc(OC2=CS(=O)(=O)c3ccccc32)c2ccccc2o1,5.99 µM,3.59 µM,–
Cc1ccc(C(=O)O/N=C(\N)Cc2cccs2)c(Cl)c1,> 41.7 µM,0.768 µM,–
Cc1cc(Cl)cc(Cl)c1OCCCCCN1CCNCC1,> 20.8 µM,2.28 µM,–
CN(C)c1ccc(/C=C/c2sc3ccc4ccccc4c3[n+]2C)cc1,> 2.08 µM,< 0.004 µM,–
CC(C)(C)C/C(=N\NC(=N)N)c1ccccc1,> 20.8 µM,5.39 µM,–
COc1ccc(/C(N)=N/OC(=O)N2CCOCC2)cc1OC,> 20.8 µM,2.98 µM,–

Compound,IC50 [1],"IC50 ([2]; Trypanosoma brucei, STIB 795)",IC50 [2]
c1ccc(NN=C(c2ccccn2)c2ccccn2)nc1,> 1.04 µM,0.468 µM,–
COc1cc2nc(N(C)C)nc(N)c2cc1OC,> 20.8 µM,5.21 µM,–
COc1ccc(C)cc1/N=N/c1ccc(O)c2nc(/C=N/O)ccc12,> 20.8 µM,2.37 µM,–
O=C1NC(=S)NC(=O)C1=Cc1c2ccccc2cc2ccccc12,> 41.7 µM,5.29 µM,–
CC1=CC(C)(C)N=C(Nc2nc(C)c3cc(C)cc(C)c3n2)N1,5.93 µM,3.73 µM,–
CCOc1cc(CNCCO)cc(Cl)c1OCc1ccccc1F,> 20.8 µM,2.43 µM,–
CCN1/C(=C/C=C/c2sc3c(C)cccc3[n+]2CC)Sc2c(C)cccc21,> 20.8 µM,0.501 µM,–
O=C1c2cccc3c(N4CCOCC4)ccc(c23)C(=O)N1O,> 41.7 µM,8.03 µM,–
Cn1c(Cl)cnc1C1CC(=O)c2cc(Cl)ccc2O1 (stereo unspecified),> 41.7 µM,0.81 µM,–
N=c1n(CCOc2ccccc2)c2ccccc2n1CCN1CCCCC1,> 20.8 µM,–,2.98 µM and > 10.4 µM
O=c1c(Oc2ccccc2Br)coc2cc(O)ccc12,> 41.7 µM,4.46 µM,–
Cc1cc(C)c2c(N)c3cccc(C)c3nc2n1,0.9 µM,0.35 µM,–
O=C(CN1C(=O)S/C(=C/c2ccccc2Cl)C1=O)N1CCOCC1,> 41.7 µM,5.03 µM,–
NC(=NOC(=O)c1cccc2ccccc12)c1ccccn1,> 20.8 µM,3.58 µM,–
O=C1CC(Sc2nc(-c3ccco3)cc(C(F)(F)F)n2)C2COC1O2 (stereo unspecified),> 20.8 µM,–,12 µM and 5.11 µM
COc1ccc(C2(CCNCc3ccc(Cl)cc3)CCOC(C)(C)C2)cc1 (stereo unspecified),> 41.7 µM,7.61 µM,–
CCOC(=O)c1ccc(NC(=O)Cn2c(C(F)(F)F)nc3ccccc32)cc1,> 41.7 µM,6.08 µM,7.85 µM
CN(C)c1ccc(/C=C\C=C\c2ccc[n+](C)c2)cc1,> 20.8 µM,0.354 µM,–
CN1/C(=C/C=C/c2oc3ccccc3[n+]2C)Oc2ccccc21,> 2.08 µM,0.253 µM,–
C/C(CC(C)(C)C1CCCCC1)=N/NC(N)N,> 4.17 µM,1.4 µM,–
CC(C)NCC(O)COc1cc2ccsc2c2ccccc12 (stereo unspecified),7.53 µM,1.54 µM,–
Cc1cccc2cc(-c3ccccc3)c(N3CCNCC3)nc12,> 4.17 µM,1.45 µM,–
Cc1ccccc1C(=O)Nc1ccccn1,> 41.7 µM,1.22 µM,–
